Source: patent EP1591123A1, “USES OF NARINGENIN, NARINGIN AND SALTS THEREOF AS EXPECTORANTS IN THE TREATMENT OF COUGH, AND COMPOSITIONS THEREOF” (Su, Wei-wei, priority 2003, dated 2004)
Where a name gives a salt, the structure may show the parent alone.

Tested on: mice
Test: Dispel phlegm test of Naringin, Phenol Red excretion in trachea (Example 29)
Assay type: in vivo
Conditions: for Dispel phlegm ratio: group given drug / blank control group x 100%; for Excretion quantity of Phenol Red / Rectified excretion quantity of Phenol Red: mice, oral, X±S; for Rectified excretion quantity of Phenol Red: excretion quantity / weight of animal
Description: 1. […] Every group was 10 animals. Eight group were set including negative control group, positive control group, high dose group of Naringin, middle dose group of Naringin, low dose group of Naringin, high dose group of sodium salt of Naringin, middle dose group of sodium salt of Naringin, low dose group of sodium salt of Naringin. […]
• 1) Blank control group: physiological saline, 0.9% NaCl; • 2) Positive control group: 0.2g Tankejing was dissolve into 10 ml physiological saline and the sample concentration was 20 mg/ml to obtain the solution for positive control. • 3) low dose group of Naringin: 0.5 mg/ml solution of Naringin was prepared by weighting out the appropriate amount of 5 mg Naringin and dissolving it by ultrasonication in 10 ml physiological saline. • 4) middle dose group of Naringin: 1.5 mg/ml solution of Naringin was prepared by weighting out the appropriate amount of 15 mg Naringin and dissolving it by ultrasonication in 10 ml physiological saline. • 5) high dose group of Naringin: 4.5 mg/ml solution of Naringin was prepared by weighting out the appropriate amount of 45 mg Naringin and dissolving it by ultrasonication in 10 ml physiological saline. • 6) low dose group of sodium salt of Naringin: 0.5 mg/ml solution of sodium salt of Naringin was prepared by weighting out the appropriate amount of 5 mg sodium salt of Naringin and dissolving it by ultrasonication in 10 ml physiological saline. • 7) middle dose group of sodium salt of Naringin: 1.5 mg/ml solution of sodium salt of Naringin was prepared by weighting out the appropriate amount of 15 mg sodium salt of Naringin and dissolving it by ultrasonication in 10 ml physiological saline. • 8) high dose group of sodium salt of Naringin: 4.5 mg/ml solution of sodium salt of Naringin was prepared by weighting out the appropriate amount of 45 mg sodium salt of Naringin and dissolving it by ultrasonication in 10 ml physiological saline.
The calibration curve was calculated by concentration of Phenol Red as y-axis and OD value as x-axis. And the excretion account of Phenol Red in mice was quantitated by calibration curve. • 2) Animals were fasted for 12 hr before dosing. • 3) Animals were oral administered with labeled number, each animal was administered with 3 min and each group was accomplished in 30 min. • 4) After administered 30 min, every animal was injected 2 ml 5% Phenol Red solution via celiac injection. The time of every animal was 3 min. • 5): Every animal was executed with 3 min interval after celiac injection 30 min, and animal trachea was peeled off with forceps after neck skin sniped, which was riveted on operating table. • 6): plasma and Phenol Red adhered to trachea ektexine was sweeped by 0.9% NaCl solution with an injector. And filter paper was used to blot up the solution. • 7): Scissors cut down the animal trachea including thyroid cartilage and trachea back-end. • 8): The trachea was set in test tube with 1.5 ml 5% NaHCO3. • 9): The experiment of every animal was completed in 3 min. […] X indicates OD value; Y indicates excretion account of Phenol Red. • 14): Rectified excretion account of Phenol Red was calculated by account of Phenol Red and weight of animal. Statistical significance of the data was determined by Student's t-test with SPSS 8.0. Rectified excretion account of Phenol Red= Account of Phenol Red (ng) / weight of animal (kg).

Row | Compound | Dispel phlegm ratio (5 mg/kg) | Dispel phlegm ratio (15 mg/kg) | Dispel phlegm ratio (45 mg/kg) | dispel phlegm effect (high dose group compared to positive control group of Tankejing) | Excretion quantity of Phenol Red (5 mg/kg) | Rectified excretion quantity of Phenol Red (5 mg/kg) | Excretion quantity of Phenol Red (15 mg/kg) | Rectified excretion quantity of Phenol Red (15 mg/kg) | Excretion quantity of Phenol Red (45 mg/kg) | Rectified excretion quantity of Phenol Red (45 mg/kg) | exudates increase of mice trachea (three doses (low, middle, high), versus negative control group)
1 | C[C@@H]1O[C@@H](O[C@H]2[C@H](Oc3cc(O)c4c(c3)O[C@H](c3ccc(O)cc3)CC4=O)O[C@H](CO)[C@@H](O)[C@@H]2O)[C@H](O)[C@H](O)[C@H]1O [Naringin, 4', 5', 7-trihydroxyflavanone-7-rhamnoneglucoside] | 159.02% | 173.12% | 416.72% | statistical better than Tankejing | 0.4914 ± 0.2215 ng | 25.5811 ± 11.8338 ng/kg | 0.5296 ± 0.2195 ng | 26.7597 ± 13.1502 ng/kg | 1.1488 ± 0.2431 ng | 64.4162 ± 18.7239 ng/kg | statistical significance stimulate the exudates increase of mice trachea
2 | C[C@@H]1O[C@@H](O[C@H]2[C@H](Oc3cc(O)c4c(c3)O[C@H](c3ccc(O)cc3)CC4=O)O[C@H](CO)[C@@H](O)[C@@H]2O)[C@H](O)[C@H](O)[C@H]1O [sodium salt of Naringin] | 169.37% | 189.65% | 432.71% |  | 0.5250 ± 0.1265 ng | 26.1805 ± 6.9069 ng/kg | 0.5748 ± 0.1417 ng | 29.3153 ± 7.7189 ng/kg | 1.3115 ± 0.3232 ng | 66.8867 ± 17.6117 ng/kg | 
